system: HCT116 cells; test: Antiproliferative activity: inhibition of cellular proliferation of HCT116 cells (14C-thymidine incorporation); assay type: cell-based; conditions: Homo sapiens, HCT-116, 96 hours
Experimental: The antiproliferative activity of the products of the examples of Table 1 was determined by measuring the inhibition of the cellular proliferation of HCT116 cells.
The cells are inoculated into a cell culture medium at a concentration of 10 000 cells per well, in 0.17 mL of medium, and 20 μL of product to be tested, at various concentrations, and 10 μL of thymidine [methyl-14C] (100 μCi/ml—specific activity 47.90 mCi/mmol; NEN Technologies reference NEC568 batch 3550-001) are added, and then the cells are incubated at 37° C. and 5% CO2.
Medium used for the culture of HCT116 cells:DMEM medium 2 mM L-glutamine, 200 IU/ml penicillin, 200 μg/ml streptomycin and 10% (V/V) foetal calf serum (Life Technologies).
After 96 hours, the incorporation of ^14C-thymidine is counted in a Microbeta Wallac Trilux 1450 liquid scintillation counter. The results R are expressed in cpm (counts per minute) and converted to percentage growth inhibition GI % by first subtracting the mean of the number of cpm of the wells without B cells and by then dividing by the number of cpm of the wells of the untreated cells C comprising 20 μL of medium for dilution of the product containing 1% ethanol. (GI %=(R−B)×100/C %).
The IC50 values are calculated with the aid of the equation 205 of the XLFit software (IDBS company, UK) by non-linear regression analysis using the Marquardt algorithm (Donald W. MARQUARDT, J. Soc. industry. appl, vol 11, No. 2, June, 1963).

| SMILES | IC50 [nM] |
| --- | --- |
| CO[C@@H](C(=O)N[C@H]1COc2ccccc2N(C)C1=O)[C@H](O)[C@@H](O)[C@H](O)/C=C/C(C)(C)C [Example 2, N-((S)-9-methyl-8-oxo-6,7,8,9-tetrahydro-5-oxa-9-azabenzocyclohepten-7-yl)-(E)-(2R,3R,4S,5R)-3,4,5-trihydroxy-2-methoxy-8,8-dimethylnon-6-enamide] | 32 |
| CO[C@@H](C(=O)NC1CN(C)c2ccccc2NC1=O)[C@H](O)[C@@H](O)[C@H](O)/C=C/C(C)(C)C (stereo partly drawn) [Example 5, N-((S)-1-methyl-4-oxo-2,3,4,5-tetrahydro-1H-1,5-bezodiazepin-3-yl)-(E)-(2R,3R,4S,5R)-3,4,5-trihydroxy-2-methoxy-8,8-dimethylnon-6-enamide] | 28 |
| CO[C@@H](C(=O)N[C@H]1CNc2ccccc2NC1=O)[C@H](O)[C@@H](O)[C@H](O)/C=C/C(C)(C)C [Example 3, N-((S)-2-oxo-2,3,4,5-tetrahydro-1H-1,5-benzodiazepin-3-yl)-(E)-(2R,3R,4S,5R)-3,4,5-trihydroxy-2-methoxy-8,8-dimethylnon-6-enamide] | 88 |
| CO[C@@H](C(=O)N[C@H]1CNc2ccccc2N(C)C1=O)[C@H](O)[C@@H](O)[C@H](O)/C=C/C(C)(C)C [Example 4, N-((S)-1-methyl-2-oxo-2,3,4,5-tetrahydro-1H-1,5-benzodiazepin-3-yl)-(E)-(2R,3R,4S,5R)-3,4,5-trihydroxy-2-methoxy-8,8-dimethylnon-6-enamide] | 45 |
| CO[C@@H](C(=O)N[C@H]1COc2ccccc2NC1=O)[C@H](O)[C@@H](O)[C@H](O)/C=C/C(C)(C)C [Example 1, N-((S)-8-oxo-6,7,8,9-tetrahydro-5-oxa-9-azabenzocyclohepten-7-yl)-(E)-(2R,3R,4S,5R)-3,4,5-trihydroxy-2-methoxy-8,8-dimethylnon-6-enamide] | 60 |

system: not listed separately; test: in vitro; conditions: human, Caco-2

| SMILES | Papp [×10⁻⁶ cm/s] |
| --- | --- |
| CO[C@@H](C(=O)N[C@H]1COc2ccccc2N(C)C1=O)[C@H](O)[C@@H](O)[C@H](O)/C=C/C(C)(C)C [Example 2, N-((S)-9-methyl-8-oxo-6,7,8,9-tetrahydro-5-oxa-9-azabenzocyclohepten-7-yl)-(E)-(2R,3R,4S,5R)-3,4,5-trihydroxy-2-methoxy-8,8-dimethylnon-6-enamide] | 5.2 |
